Active and inactive are the calls of the source. The rule behind the calls is not given here.
Test system: CCRIS mutagenicity, Ames/micronucleus/aberration tests
Test: CCRIS mutagenicity studies
[1] = Test System: AMES SALMONELLA TYPHIMURIUM, Strain/Indicator: TA98, Metabolic Activation: NONE, Method: PREINCUBATION
[2] = Test System: AMES SALMONELLA TYPHIMURIUM, Strain/Indicator: TA100, Metabolic Activation: NONE, Method: PREINCUBATION
[3] = Test System: AMES SALMONELLA TYPHIMURIUM, Strain/Indicator: TA1535, Metabolic Activation: NONE, Method: PREINCUBATION
[4] = Test System: AMES SALMONELLA TYPHIMURIUM, Strain/Indicator: TA1537, Metabolic Activation: NONE, Method: PREINCUBATION
[5] = Test System: AMES SALMONELLA TYPHIMURIUM, Strain/Indicator: TA98, Metabolic Activation: NONE, Method: STANDARD PLATE
[6] = Test System: AMES SALMONELLA TYPHIMURIUM, Strain/Indicator: TA100, Metabolic Activation: NONE, Method: STANDARD PLATE
[7] = Test System: AMES SALMONELLA TYPHIMURIUM, Strain/Indicator: TA1535, Metabolic Activation: NONE, Method: STANDARD PLATE
[8] = Test System: AMES SALMONELLA TYPHIMURIUM, Strain/Indicator: TA1537, Metabolic Activation: NONE, Method: STANDARD PLATE
[9] = Test System: AMES SALMONELLA TYPHIMURIUM, Strain/Indicator: TA98, Metabolic Activation: RAT, LIVER, S-9, AROCLOR 1254, Method: STANDARD PLATE
[10] = Test System: AMES SALMONELLA TYPHIMURIUM, Strain/Indicator: TA100, Metabolic Activation: RAT, LIVER, S-9, AROCLOR 1254, Method: STANDARD PLATE

Measured: mutagenic call

C=C1/C(=C\C=C2/CCC[C@]3(C)[C@@H]([C@H](C)/C=C/[C@@H](O)C4CC4)CC[C@@H]23)C[C@@H](O)C[C@@H]1O
inactive: [1] inactive; negative | Test System: AMES SALMONELLA TYPHIMURIUM, Strain/Indicator: TA98, Metabolic Activation: S-9, Method: PREINCUBATION inactive; negative | [2] inactive; negative | Test System: AMES SALMONELLA TYPHIMURIUM, Strain/Indicator: TA100, Metabolic Activation: S-9, Method: PREINCUBATION inactive; negative | [3] inactive; negative | Test System: AMES SALMONELLA TYPHIMURIUM, Strain/Indicator: TA1535, Metabolic Activation: S-9, Method: PREINCUBATION inactive; negative | [4] inactive; negative | Test System: AMES SALMONELLA TYPHIMURIUM, Strain/Indicator: TA1537, Metabolic Activation: S-9, Method: PREINCUBATION inactive; negative | Test System: E. COLI, Strain/Indicator: WP2 UVRA, Metabolic Activation: NONE, Method: PREINCUBATION inactive; negative | Test System: E. COLI, Strain/Indicator: WP2 UVRA, Metabolic Activation: S-9, Method: PREINCUBATION inactive; negative

FC(Cl)C(F)(F)F (centres undefined)
inactive: Test System: AMES SALMONELLA TYPHIMURIUM, Strain/Indicator: TA97, Metabolic Activation: NONE, Method: VAPOR CHAMBER inactive; negative | Test System: AMES SALMONELLA TYPHIMURIUM, Strain/Indicator: TA97, Metabolic Activation: RAT LIVER S-9, Method: VAPOR CHAMBER inactive; negative | Test System: AMES SALMONELLA TYPHIMURIUM, Strain/Indicator: TA98, Metabolic Activation: NONE, Method: VAPOR CHAMBER inactive; negative | Test System: AMES SALMONELLA TYPHIMURIUM, Strain/Indicator: TA98, Metabolic Activation: RAT LIVER S-9, Method: VAPOR CHAMBER inactive; negative | Test System: AMES SALMONELLA TYPHIMURIUM, Strain/Indicator: TA100, Metabolic Activation: NONE, Method: VAPOR CHAMBER inactive; negative | Test System: AMES SALMONELLA TYPHIMURIUM, Strain/Indicator: TA100, Metabolic Activation: RAT LIVER S-9, Method: VAPOR CHAMBER inactive; negative | Test System: AMES SALMONELLA TYPHIMURIUM, Strain/Indicator: TA1535, Metabolic Activation: NONE, Method: VAPOR CHAMBER inactive; negative | Test System: AMES SALMONELLA TYPHIMURIUM, Strain/Indicator: TA1535, Metabolic Activation: RAT LIVER S-9, Method: VAPOR CHAMBER inactive; negative

Cc1ccc(NC(=O)c2csc([N+](=O)[O-])c2)cc1
active: [5] active; positive | [6] active; positive

O=c1c2[nH]c3ccccc3c2nnn1/N=C/c1ccc(Cl)cc1
active: Test System: AMES SALMONELLA TYPHIMURIUM, Strain/Indicator: TA97, Metabolic Activation: RAT, LIVER, S-9, AROCLOR 1254 (10%), Method: PREINCUBATION active; positive | [1] active; positive | Test System: AMES SALMONELLA TYPHIMURIUM, Strain/Indicator: TA98, Metabolic Activation: RAT, LIVER, S-9, AROCLOR 1254 (10%), Method: PREINCUBATION active; positive | Test System: AMES SALMONELLA TYPHIMURIUM, Strain/Indicator: TA100, Metabolic Activation: RAT, LIVER, S-9, AROCLOR 1254 (10%), Method: PREINCUBATION active; positive
inactive: Test System: AMES SALMONELLA TYPHIMURIUM, Strain/Indicator: TA97, Metabolic Activation: NONE, Method: PREINCUBATION inactive; negative | [2] inactive; negative | Test System: AMES SALMONELLA TYPHIMURIUM, Strain/Indicator: TA102, Metabolic Activation: NONE, Method: PREINCUBATION inactive; negative | Test System: AMES SALMONELLA TYPHIMURIUM, Strain/Indicator: TA102, Metabolic Activation: RAT, LIVER, S-9, AROCLOR 1254 (10%), Method: PREINCUBATION inactive; negative

CC(=O)Nc1snc2c(Cl)cc(Cl)cc12
inactive: [5] inactive; negative | Test System: AMES SALMONELLA TYPHIMURIUM, Strain/Indicator: TA98, Metabolic Activation: S-9, Method: STANDARD PLATE inactive; negative | [6] inactive; negative | Test System: AMES SALMONELLA TYPHIMURIUM, Strain/Indicator: TA100, Metabolic Activation: S-9, Method: STANDARD PLATE inactive; negative | [7] inactive; negative | Test System: AMES SALMONELLA TYPHIMURIUM, Strain/Indicator: TA1535, Metabolic Activation: S-9, Method: STANDARD PLATE inactive; negative | [8] inactive; negative | Test System: AMES SALMONELLA TYPHIMURIUM, Strain/Indicator: TA1537, Metabolic Activation: S-9, Method: STANDARD PLATE inactive; negative

CC(C)c1ccccc1O
inactive: [1] inactive; negative | Test System: AMES SALMONELLA TYPHIMURIUM, Strain/Indicator: TA98, Metabolic Activation: RAT LIVER S-9, PHENOBARBITAL AND BETA-NAPHTHOFLAVONE, Method: PREINCUBATION inactive; negative | [2] inactive; negative | Test System: AMES SALMONELLA TYPHIMURIUM, Strain/Indicator: TA100, Metabolic Activation: RAT LIVER S-9, PHENOBARBITAL AND BETA-NAPHTHOFLAVONE, Method: PREINCUBATION inactive; negative | [3] inactive; negative | Test System: AMES SALMONELLA TYPHIMURIUM, Strain/Indicator: TA1535, Metabolic Activation: RAT LIVER S-9, PHENOBARBITAL AND BETA-NAPHTHOFLAVONE, Method: PREINCUBATION inactive; negative | [4] inactive; negative | Test System: AMES SALMONELLA TYPHIMURIUM, Strain/Indicator: TA1537, Metabolic Activation: RAT LIVER S-9, PHENOBARBITAL AND BETA-NAPHTHOFLAVONE, Method: PREINCUBATION inactive; negative | Test System: E.COLI, Strain/Indicator: WP2UVRA/PKM101, Metabolic Activation: NONE, Method: PREINCUBATION inactive; negative | Test System: E.COLI, Strain/Indicator: WP2UVRA/PKM101, Metabolic Activation: RAT LIVER S-9, PHENOBARBITAL AND BETA-NAPHTHOFLAVONE, Method: PREINCUBATION inactive; negative

Clc1ccc2ccc3cccc4ccc1c2c34
active: [9] active; positive | [10] active; positive

NC(=O)N/N=C/C(=O)O
inactive: [5] inactive; negative | [9] inactive; negative | [6] inactive; negative | [10] inactive; negative | [7] inactive; negative | Test System: AMES SALMONELLA TYPHIMURIUM, Strain/Indicator: TA1535, Metabolic Activation: RAT, LIVER, S-9, AROCLOR 1254, Method: STANDARD PLATE inactive; negative | [8] inactive; negative | Test System: AMES SALMONELLA TYPHIMURIUM, Strain/Indicator: TA1537, Metabolic Activation: RAT, LIVER, S-9, AROCLOR 1254, Method: STANDARD PLATE inactive; negative | Test System: AMES SALMONELLA TYPHIMURIUM, Strain/Indicator: TA1538, Metabolic Activation: NONE, Method: STANDARD PLATE inactive; negative | Test System: AMES SALMONELLA TYPHIMURIUM, Strain/Indicator: TA1538, Metabolic Activation: RAT, LIVER, S-9, AROCLOR 1254, Method: STANDARD PLATE inactive; negative

COc1cc2c(CCNC(C)=O)c[nH]c2cc1O
inactive: Test System: AMES SALMONELLA TYPHIMURIUM, Strain/Indicator: TA97, Metabolic Activation: NONE, Method: STANDARD PLATE inactive; negative | Test System: AMES SALMONELLA TYPHIMURIUM, Strain/Indicator: TA97, Metabolic Activation: RAT, LIVER, S-9, AROCLOR 1254, Method: STANDARD PLATE inactive; negative | [5] inactive; negative | [9] inactive; negative | [6] inactive; negative | [10] inactive; negative

OC[C@H](O)CCl
active: [2] active; positive | Test System: AMES SALMONELLA TYPHIMURIUM, Strain/Indicator: TA100, Metabolic Activation: RAT, LIVER, S-9, PCB, Method: PREINCUBATION active; positive
inactive: [1] inactive; negative | Test System: AMES SALMONELLA TYPHIMURIUM, Strain/Indicator: TA98, Metabolic Activation: RAT, LIVER, S-9, KANECHLOR 500, Method: PREINCUBATION inactive; negative | Test System: AMES SALMONELLA TYPHIMURIUM, Strain/Indicator: TA100, Metabolic Activation: RAT, LIVER, S-9, KANECHLOR 500, Method: PREINCUBATION inactive; negative

— PubChem BioAssay AID1259407 (Chemical Carcinogenesis Research Information System (CCRIS), 2018)
